The Kd is the free concentration of one partner at which half of the binding sites on the other are occupied at equilibrium, for simple one-to-one binding.

Each structure is given as a SMILES string.

For this experiment, the target named is WDR5 (Homo sapiens (Human), UniProt P61964). The experiment can be described thus: Surface Plasmon Resonance (SPR) assay, KD and residence time. To be noted: surface plasmon resonance (SPR); read-out: WDR5 binding affinity (KD). In kind it is binding. For orientation: In SPR one partner is held on a chip, and binding of the other changes the refractive index at the surface.

As for `COCCN(C)[C@@H]1CCN(c2cc(F)c(-c3cnc(N4CCOCC4)nc3)cc2NC(=O)c2c[nH]c(=O)cc2C(F)(F)F)C1` [Example 578, N-[4-fluoro-5-(2-morpholin-4-ylpyrimidin-5-yl)-2-[(3R)-3-[2-methoxyethyl(methyl)amino]pyrrolidin-1-yl]phenyl]-6-oxo-4-(trifluoromethyl)-1H-pyridine-3-carboxamide], the Kd turned out to be 16.9 nM. Consider `C[C@@H]1CN(c2cc(F)c(-c3ccc(S(C)(=O)=O)nc3)cc2NC(=O)c2c[nH]c(=O)cc2C(F)(F)F)C[C@H](C)N1C` [Example 581, N-[4-fluoro-5-(6-methylsulfonylpyridin-3-yl)-2-[(3R,5S)-3,4,5-trimethylpiperazin-1-yl]phenyl]-6-oxo-4-(trifluoromethyl)-1H-pyridine-3-carboxamide], for which the Kd is 0.768 nM. Under `C[C@@H]1CN(c2cc(F)c(-c3cnc(NS(C)(=O)=O)nc3)cc2NC(=O)c2c[nH]c(=O)cc2C(F)(F)F)C[C@H](C)N1C` [Example 582, N-[4-fluoro-5-[2-(methanesulfonamido)pyrimidin-5-yl]-2-[(3R,5S)-3,4,5-trimethylpiperazin-1-yl]phenyl]-6-oxo-4-(trifluoromethyl)-1H-pyridine-3-carboxamide] stands 5.78 nM. Turning to `C[C@@H]1CN(c2cc(F)c(C3=CCCN(c4ncc(C#N)cn4)C3)cc2NC(=O)c2c[nH]c(=O)cc2C(F)(F)F)C[C@H](C)N1C` [Example 583, N-[5-[1-(5-cyanopyrimidin-2-yl)-3,6-dihydro-2H-pyridin-5-yl]-4-fluoro-2-[(3R,5S)-3,4,5-trimethylpiperazin-1-yl]phenyl]-6-oxo-4-(trifluoromethyl)-1H-pyridine-3-carboxamide], the Kd stood at 0.877 nM. With `CN(CC1CC1)[C@@H]1CCN(c2cc(F)c(-c3cnc(N4CCOCC4)nc3)cc2NC(=O)c2c[nH]c(=O)cc2C(F)(F)F)C1` [Example 586, N-[4-fluoro-5-(2-morpholin-4-ylpyrimidin-5-yl)-2-[(3R)-3-[cyclopropylmethyl(methyl)amino]pyrrolidin-1-yl]phenyl]-6-oxo-4-(trifluoromethyl)-1H-pyridine-3-carboxamide], the Kd is 15.5 nM. To `CN(CC1CC1)[C@@H]1CCN(c2cc(F)c(-c3cnc(N4CCOCC4)nc3)cc2NC(=O)c2cn(C)c(=O)cc2C(F)(F)F)C1` [Example 587, N-[4-fluoro-5-(2-morpholin-4-ylpyrimidin-5-yl)-2-[(3R)-3-[cyclopropylmethyl(methyl)amino]pyrrolidin-1-yl]phenyl]-1-methyl-6-oxo-4-(trifluoromethyl)pyridine-3-carboxamide] belongs 253 nM; to `C[C@@H]1CN(c2cc(F)c(C3=CCN(c4ncc(C#N)cn4)C3)cc2NC(=O)c2c[nH]c(=O)cc2C(F)(F)F)C[C@H](C)N1C` [Example 588, N-[5-[1-(5-cyanopyrimidin-2-yl)-2,5-dihydropyrrol-3-yl]-4-fluoro-2-[(3R,5S)-3,4,5-trimethylpiperazin-1-yl]phenyl]-6-oxo-4-(trifluoromethyl)-1H-pyridine-3-carboxamide], 1.72 nM; to `C[C@@H]1CN(c2cc(F)c(-c3ccc(F)c(C(N)=O)c3)cc2NC(=O)c2cn(C)c(=O)cc2C(F)(F)F)C[C@H](C)N1C` [Example 589, N-[5-(3-carbamoyl-4-fluorophenyl)-4-fluoro-2-[(3R,5S)-3,4,5-trimethylpiperazin-1-yl]phenyl]-1-methyl-6-oxo-4-(trifluoromethyl)pyridine-3-carboxamide], 7.46 nM. For `C[C@@H]1CN(c2cc(F)c(-c3ccc(C(N)=O)c(F)c3)cc2NC(=O)c2cn(C)c(=O)cc2C(F)(F)F)C[C@H](C)N1C` [Example 590, N-[5-(4-carbamoyl-3-fluorophenyl)-4-fluoro-2-[(3R,5S)-3,4,5-trimethylpiperazin-1-yl]phenyl]-1-methyl-6-oxo-4-(trifluoromethyl)pyridine-3-carboxamide], the Kd amounted to 3.32 nM.

The values are drawn from patent US11319299B2, “Substituted carboxamides as inhibitors of WDR5 protein-protein binding” (PROPELLON THERAPEUTICS INC., priority 2016, dated 2022).
